From publication PMC10893631, “Receptor-based pharmacophore modeling, molecular docking, synthesis and biological evaluation of novel VEGFR-2, FGFR-1, and BRAF multi-kinase inhibitors” (BMC Chemistry, 2024)

Legend:
Assay in all cases: NCI SRB growth inhibition (single dose 10 µM / five-dose)
Assay type in all cases: cell-based, human
CCRF-CEM = settings: Homo sapiens; for inhibition at 10 µM: CCRF-CEM (Leukemia), read-out: GI%
How it was run: (§1)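 SRB protein stain of fixed cells; compounds tested at one dose (10 µM) or five serial dilutions (10-fold or ½ log), diluted from DMSO stock. Cells plated 24 h before dosing, with a time-zero plate fixed in TCA. Percent growth derived from Tz, control and test absorbances; TGI taken where Ti = Tz.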

HT29 = settings: Homo sapiens, HT-29; for inhibition at 10 µM: HT29 (Colon cancer), read-out: GI%
How it was run: as §1

HOP-92 = settings: Homo sapiens; for inhibition at 10 µM: HOP-92 (Non-small cell lung cancer), read-out: GI%
How it was run: as §1

SK-MEL-28 = settings: Homo sapiens; for inhibition at 10 µM: SK-MEL-28 (Melanoma), read-out: GI%
How it was run: as §1

CAKI-1 = settings: Homo sapiens; for inhibition at 10 µM: CAKI-1 (Renal cancer), read-out: GI%
How it was run: as §1

ACHN = settings: Homo sapiens; for inhibition at 10 µM: ACHN (Renal cancer), read-out: GI%
How it was run: as §1

EKVX = settings: Homo sapiens; for inhibition at 10 µM: EKVX (Non-small cell lung cancer), read-out: GI%
How it was run: as §1

SF-295 = settings: Homo sapiens; for inhibition at 10 µM: SF-295 (CNS cancer), read-out: GI%
How it was run: as §1

SK-MEL-5 = settings: Homo sapiens; for inhibition at 10 µM: SK-MEL-5 (Melanoma), read-out: GI%
How it was run: as §1

NCI/ADR-RES = settings: Homo sapiens; for inhibition at 10 µM: NCI/ADR-RES (Ovarian cancer), read-out: GI%
How it was run: as §1

M14 = settings: Homo sapiens; for inhibition at 10 µM: M14 (Melanoma), read-out: GI%
How it was run: as §1

OVCAR-5 = settings: Homo sapiens; for inhibition at 10 µM: OVCAR-5 (Ovarian cancer), read-out: GI%
How it was run: as §1

MDA-MB-231/ATCC = settings: Homo sapiens; for inhibition at 10 µM: MDA-MB-231/ATCC (Breast cancer), read-out: GI%
How it was run: as §1

RXF 393 = settings: Homo sapiens; for inhibition at 10 µM: RXF 393 (Renal cancer), read-out: GI%
How it was run: as §1

HCC-2998 = settings: Homo sapiens; for inhibition at 10 µM: HCC-2998 (Colon cancer), read-out: GI%
How it was run: as §1

TK-10 = settings: Homo sapiens; for inhibition at 10 µM: TK-10 (Renal cancer), read-out: GI%
How it was run: as §1

MALME-3 M = settings: Homo sapiens; for inhibition at 10 µM: MALME-3 M (Melanoma), read-out: GI%
How it was run: as §1

MOLT-4 = settings: Homo sapiens; for inhibition at 10 µM: MOLT-4 (Leukemia), read-out: GI%
How it was run: as §1

SR = settings: Homo sapiens; for inhibition at 10 µM: SR (Leukemia), read-out: GI%
How it was run: as §1

A549/ATCC = settings: Homo sapiens; for inhibition at 10 µM: A549/ATCC (Non-small cell lung cancer), read-out: GI%
How it was run: as §1

SK-MEL-2 = settings: Homo sapiens; for inhibition at 10 µM: SK-MEL-2 (Melanoma), read-out: GI%
How it was run: as §1

BT-549 = settings: Homo sapiens; for inhibition at 10 µM: BT-549 (Breast cancer), read-out: GI%
How it was run: as §1

NCI-H226 = settings: Homo sapiens; for inhibition at 10 µM: NCI-H226 (Non-small cell lung cancer), read-out: GI%
How it was run: as §1

HS 578 T = settings: Homo sapiens; for inhibition at 10 µM: HS 578 T (Breast cancer), read-out: GI%
How it was run: as §1

786–0 = settings: Homo sapiens; for inhibition at 10 µM: 786–0 (Renal cancer), read-out: GI%
How it was run: as §1

UACC-257 = settings: Homo sapiens; for inhibition at 10 µM: UACC-257 (Melanoma), read-out: GI%
How it was run: as §1

COc1cccc(C=NNC(=O)c2ccc3[nH]c(-c4ccccc4)nc3c2)c1O [8d, N'-(2-hydroxy-3-methoxybenzylidene)-2-phenyl-1H-benzo[d]imidazole-5-carbohydrazide]
inhibition at 10 µM (CCRF-CEM): > 100% | GI50 (CCRF-CEM; CCRF-CEM, Leukemia, five-dose): 300 nM | inhibition at 10 µM (HT29): 84.5% | GI50 (HT29; HT29, Colon cancer, five-dose): 3410 nM | inhibition at 10 µM (HOP-92): 68.4% | GI50 (HOP-92; HOP-92, Non-small cell lung cancer, five-dose): 1580 nM | inhibition at 10 µM (SK-MEL-28): 96.2% | GI50 (SK-MEL-28; SK-MEL-28, Melanoma, five-dose): 1780 nM | inhibition at 10 µM (CAKI-1): 91.6% | GI50 (CAKI-1; CAKI-1, Renal cancer, five-dose): 2680 nM | inhibition at 10 µM (ACHN): 83.3% | GI50 (ACHN; ACHN, Renal cancer, five-dose): 2280 nM | inhibition at 10 µM (EKVX): 87.6% | GI50 (EKVX; EKVX, Non-small cell lung cancer, five-dose): 1860 nM | inhibition at 10 µM (SF-295): 83.2% | GI50 (SF-295; SF-295, CNS cancer, five-dose): 2930 nM | inhibition at 10 µM (SK-MEL-5): > 100% | GI50 (SK-MEL-5; SK-MEL-5, Melanoma, five-dose): 1400 nM | inhibition at 10 µM (NCI/ADR-RES): 48% | GI50 (NCI/ADR-RES; NCI/ADR-RES, Ovarian cancer, five-dose): 4650 nM | inhibition at 10 µM (M14): > 100% | GI50 (M14; M14, Melanoma, five-dose): 1570 nM | inhibition at 10 µM (OVCAR-5): 63.2% | GI50 (OVCAR-5; OVCAR-5, Ovarian cancer, five-dose): 2770 nM | inhibition at 10 µM (MDA-MB-231/ATCC): 94.4% | GI50 (MDA-MB-231/ATCC; MDA-MB-231/ATCC, Breast cancer, five-dose): 2410 nM | inhibition at 10 µM (RXF 393): 86% | GI50 (RXF 393; RXF 393, Renal cancer, five-dose): 3210 nM | inhibition at 10 µM (HCC-2998): 98.5% | GI50 (HCC-2998; HCC-2998, Colon cancer, five-dose): 1790 nM | inhibition at 10 µM (TK-10): 50.6% | GI50 (TK-10; TK-10, Renal cancer, five-dose): 4780 nM | inhibition at 10 µM (MALME-3 M): > 100% | GI50 (MALME-3 M; MALME-3 M, Melanoma, five-dose): 1370 nM | inhibition at 10 µM (MOLT-4): 65.8% | GI50 (MOLT-4; MOLT-4, Leukemia, five-dose): 2060 nM | inhibition at 10 µM (SR): 77% | GI50 (SR; SR, Leukemia, five-dose): 1800 nM | inhibition at 10 µM (A549/ATCC): 79.8% | GI50 (A549/ATCC; A549/ATCC, Non-small cell lung cancer, five-dose): 3390 nM | inhibition at 10 µM (SK-MEL-2): 34.3% | GI50 (SK-MEL-2; SK-MEL-2, Melanoma, five-dose): 1640 nM | inhibition at 10 µM (BT-549): 96.6% | GI50 (BT-549; BT-549, Breast cancer, five-dose): 1520 nM | inhibition at 10 µM (NCI-H226): > 100% | GI50 (NCI-H226; NCI-H226, Non-small cell lung cancer, five-dose): 530 nM | inhibition at 10 µM (HS 578 T): 92.9% | GI50 (HS 578 T; HS 578 T, Breast cancer, five-dose): 620 nM | inhibition at 10 µM (786–0): 86% | GI50 (786–0; 786–0, Renal cancer, five-dose): 2470 nM | inhibition at 10 µM (UACC-257): > 100% | GI50 (UACC-257; UACC-257, Melanoma, five-dose): 2340 nM

COc1ccc(C=NNC(=O)c2ccc3[nH]c(-c4ccccc4)nc3c2)cc1O [8e, N'-(3-Hydroxy-4-methoxybenzylidene)-2-phenyl-1H-benzo[d]imidazole-5-carbohydrazide]
inhibition at 10 µM (CCRF-CEM): 35.9% | inhibition at 10 µM (HT29): 95.8% | inhibition at 10 µM (HOP-92): 6.3% | inhibition at 10 µM (SK-MEL-28): 28.9% | inhibition at 10 µM (CAKI-1): 17.6% | inhibition at 10 µM (ACHN): < 5% | inhibition at 10 µM (EKVX): 19.2% | inhibition at 10 µM (SF-295): 10.9% | inhibition at 10 µM (SK-MEL-5): 39.5% | inhibition at 10 µM (NCI/ADR-RES): < 5% | inhibition at 10 µM (M14): 19.7% | inhibition at 10 µM (OVCAR-5): < 5% | inhibition at 10 µM (MDA-MB-231/ATCC): < 5% | inhibition at 10 µM (RXF 393): < 5% | inhibition at 10 µM (HCC-2998): < 5% | inhibition at 10 µM (TK-10): < 5% | inhibition at 10 µM (MALME-3 M): 78.4% | inhibition at 10 µM (MOLT-4): 36.1% | inhibition at 10 µM (SR): 44.1% | inhibition at 10 µM (A549/ATCC): < 5% | inhibition at 10 µM (SK-MEL-2): 8.51% | inhibition at 10 µM (BT-549): < 5% | inhibition at 10 µM (NCI-H226): 11.4% | inhibition at 10 µM (HS 578 T): 6.89% | inhibition at 10 µM (786–0): 16.6% | inhibition at 10 µM (UACC-257): 13.8%

COc1ccc(-c2nc3cc(C(=O)NN=Cc4cc(OC)c(OC)c(OC)c4)ccc3[nH]2)cc1 [8n, 2-(4-Methoxyphenyl)-N'-(3,4,5-trimethoxybenzylidene)-1H-benzo[d]imidazole-5-carbohydrazide]
inhibition at 10 µM (CCRF-CEM): 38.8% | inhibition at 10 µM (HOP-92): < 5% | inhibition at 10 µM (SK-MEL-28): 31.4% | inhibition at 10 µM (CAKI-1): 23.8% | inhibition at 10 µM (ACHN): 9.17% | inhibition at 10 µM (EKVX): < 5% | inhibition at 10 µM (SF-295): 29.8% | inhibition at 10 µM (SK-MEL-5): 42.6% | inhibition at 10 µM (NCI/ADR-RES): < 5% | inhibition at 10 µM (M14): 40.3% | inhibition at 10 µM (OVCAR-5): < 5% | inhibition at 10 µM (MDA-MB-231/ATCC): 7.37% | inhibition at 10 µM (RXF 393): 20.1% | inhibition at 10 µM (HCC-2998): < 5% | inhibition at 10 µM (TK-10): < 5% | inhibition at 10 µM (MALME-3 M): 76.8% | inhibition at 10 µM (MOLT-4): 22.1% | inhibition at 10 µM (SR): 26.9% | inhibition at 10 µM (A549/ATCC): < 5% | inhibition at 10 µM (BT-549): < 5% | inhibition at 10 µM (NCI-H226): 22.3% | inhibition at 10 µM (HS 578 T): 37.7% | inhibition at 10 µM (786–0): < 5% | inhibition at 10 µM (UACC-257): 25.6%
